This assay relates to LRRK2^G2019S, PINK1 null and SNCA^A53T flies. The assay is described as follows: Dopaminergic neuron number in fly PD models (anti-TH). Particulars: 2.5 μM in food, all three PD models. It counts as in vivo. The procedure: FIG. 4A-FIG. 4I. Miro1 Reducer Rescues PD-Relevant Phenotypes in Flies. For all panels, when Miro1 Reducer was not added, the same volume of the solvent, DMSO, was supplied in fly food. Drug administration (2.5 μM) was started from day 2. (FIG. 4A-FIG. 4C) Survival curves of LRRK2^G2019S (FIG. 4A), PINK1^B9 (imprecise excision, null) and PINK1^RV (the precise excision control for PINK1^B9) (FIG. 4B), and SNCA^A53T flies (FIG. 4C). n=58-150. (FIG. 4D) Dopaminergic (DA) neurons in the PPM1/2 clusters of 22-day old flies were immunostained with anti-TH. (FIG. 4D-FIG. 4F) Quantification of the DA neuron number in the PPL1 or PPM1/2 cluster (total number divided by 2 for each brain). (FIG. 4D) LRRK2^G2019S. n=6-8 brains. (FIG. 4E) PINK1^B9 (“−”) and PINK1^RV (“+”). n=9-16. (FIG. 4F) SNCA^A53T. n=9-11. […]
Immunocytochemistry and Confocal Microscopy. PI (P4170, Sigma) at 2.5 μg/ml or 4′, 6-Diamidino-2-phenylindole (Dapi-D9542, Sigma) at 0.5 μg/ml was applied in culture media at room temperature in the dark for 10 min, MitoSox (M36008, Invitrogen) at 2 μM was applied in culture media at 37° C. for 10 min, or TMRM (T668, Molecular Probes) at 25 nM was applied in culture media at 37° C. for 30 min, and cells were washed with HBSS and imaged immediately in a 35-mm petridish containing the Hibernate E low-fluorescence medium with a 63×/N.A.0.9 water-immersion objective. […]

As for `O=C(Nc1ccc(Nc2cc(-n3ccnc3)ncn2)cc1)Nc1cccc(F)c1` [Miro1 Reducer], the “age-dependent dopaminergic neuronal loss” value is on record as “significantly rescued”.
